Source: the supplement of paper PMC10307832

Columns and labels:
Assay in all cases: relative viability (nuclei count vs DMSO), 5 days (fraction); higher = more cells survive
[1] = compound: CC1=CC=C(C=C1)C(=O)CN2C3=C(CCCC3)SC2=N [Pifithrin_alpha] + CC(=O)c1c(C)c2cnc(Nc3ccc(N4CCNCC4)cn3)nc2n(C2CCCC2)c1=O [Palbociclib] (partner 0.5 µM)
Summary of the method: (§1)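 Lung cancer cell lines in 1536-well plates got either a single drug or a fixed anchor-drug dose together with five library-drug doses (not always all listed) in √10 steps, by pin tool, on the day after seeding. Nuclei were counted after 5 days, and relative viability is the treated-to-vehicle ratio of nuclei counts. Values are medians of duplicate plates.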

Axitinib + Trametinib = compound: CNC(=O)c1ccccc1Sc1ccc2c(/C=C/c3ccccn3)n[nH]c2c1 [Axitinib] + CC(=O)Nc1cccc(-n2c(=O)n(C3CC3)c(=O)c3c(Nc4ccc(I)cc4F)n(C)c(=O)c(C)c32)c1 [Trametinib] (partner 0.02 µM)
Summary of the method: as §1

Axitinib + Alpelisib = compound: CNC(=O)c1ccccc1Sc1ccc2c(/C=C/c3ccccn3)n[nH]c2c1 [Axitinib] + Cc1nc(NC(=O)N2CCC[C@H]2C(N)=O)sc1-c1ccnc(C(C)(C)C(F)(F)F)c1 [Alpelisib] (partner 2 µM)
Summary of the method: as §1

Bemcentinib + Luminespib = compound: Nc1nc(Nc2ccc3c(c2)CC[C@@H](N2CCCC2)CC3)nn1-c1cc2c(nn1)-c1ccccc1CCC2 [Bemcentinib] + CCNC(=O)c1noc(-c2cc(C(C)C)c(O)cc2O)c1-c1ccc(CN2CCOCC2)cc1 [Luminespib] (partner 0.01 µM)
Summary of the method: as §1

| Cell Line | relative viability ([1]; first compound 1 µM) | relative viability ([1]; first compound 3.162 µM) | relative viability ([1]; first compound 10 µM) | relative viability ([1]; first compound 31.62 µM) | relative viability ([1]; first compound 100 µM) | relative viability (Axitinib + Trametinib; first compound 0.005 µM) | relative viability (Axitinib + Trametinib; first compound 0.01581 µM) | relative viability (Axitinib + Trametinib; first compound 0.05 µM) | relative viability (Axitinib + Trametinib; first compound 0.1581 µM) | relative viability (Axitinib + Trametinib; first compound 0.5 µM) | relative viability (Axitinib + Alpelisib; first compound 0.005 µM) | relative viability (Axitinib + Alpelisib; first compound 0.01581 µM) | relative viability (Axitinib + Alpelisib; first compound 0.05 µM) | relative viability (Axitinib + Alpelisib; first compound 0.1581 µM) | relative viability (Axitinib + Alpelisib; first compound 0.5 µM) | relative viability (Bemcentinib + Luminespib; first compound 0.04 µM) | relative viability (Bemcentinib + Luminespib; first compound 0.1265 µM) | relative viability (Bemcentinib + Luminespib; first compound 0.4 µM) | relative viability (Bemcentinib + Luminespib; first compound 1.265 µM) | relative viability (Bemcentinib + Luminespib; first compound 4 µM) |
| --- | --- | --- | --- | --- | --- | --- | --- | --- | --- | --- | --- | --- | --- | --- | --- | --- | --- | --- | --- | --- |
| A-427 | 0.5 | 0.529 | 0.497 | 0.447 | 0.454 | 0.89 | 0.711 | 0.758 | 0.761 | 0.879 | 1.05 | 1.1 | 1.08 | 1.05 | 1.09 | 1.04 | 1.09 | 0.934 | 0.822 | 0.737 |
| LXF-289 | 0.591 | 0.625 | 0.591 | 0.529 | 0.6 | 0.703 | 0.644 | 0.683 | 0.684 | 0.701 | 1.05 | 0.961 | 1.03 | 0.958 | 1.05 | 0.74 | 0.78 | 0.703 | 0.653 | 0.665 |
| NCI-H1355 | 0.376 | 0.283 | 0.301 | 0.249 | 0.257 | 0.409 | 0.423 | 0.397 | 0.417 | 0.493 | 0.891 | 0.825 | 0.794 | 0.897 | 0.909 | 0.771 | 0.823 | 0.737 | 0.673 | 0.758 |
| NCI-H1437 | 0.325 | 0.326 | 0.218 | 0.217 | 0.172 | 0.634 | 0.488 | 0.557 | 0.554 | 0.519 | 1.01 | 1.01 | 1.01 | 0.929 | 1.06 | 1.12 | 1.24 | 1.15 | 1.07 | 1.11 |
| HCC-366 | 0.33 | 0.289 | 0.28 | – | 0.258 | 0.415 | 0.417 | 0.391 | 0.359 | 0.333 | 0.616 | 0.482 | 0.505 | 0.387 | 0.619 | – | – | – | – | – |
| NCI-H1299 | – | – | – | – | – | – | – | – | – | – | 0.987 | 1.01 | 1.06 | 1.06 | 1.1 | – | – | – | – | – |
| 201T | 0.349 | 0.319 | 0.344 | 0.286 | 0.376 | 0.715 | 0.682 | 0.711 | 0.713 | 0.732 | 1.01 | 0.959 | 0.947 | 0.987 | 0.972 | 1.07 | 1.05 | 1.14 | 1.07 | 1.14 |
| IA-LM | – | – | – | – | – | – | – | – | – | – | 0.79 | 0.883 | 0.733 | 0.761 | 0.619 | – | – | – | – | – |
| NCI-H1734 | 0.38 | 0.362 | 0.33 | 0.313 | 0.355 | 0.676 | 0.549 | 0.608 | 0.686 | 0.669 | 0.547 | 0.691 | 0.702 | 0.626 | 0.707 | 0.178 | 0.192 | 0.219 | 0.218 | 0.188 |
| NCI-H1993 | 0.585 | 0.542 | 0.506 | 0.54 | 0.46 | 0.433 | 0.373 | 0.535 | 0.503 | 0.506 | 0.664 | 0.643 | 0.655 | 0.784 | 0.693 | 0.905 | 0.768 | 0.999 | 1.13 | 0.899 |
| NCI-H2085 | 0.499 | 0.432 | 0.449 | 0.446 | 0.444 | 0.561 | 0.496 | 0.56 | 0.546 | 0.548 | 1.05 | 0.85 | 0.979 | 0.866 | 0.947 | 0.447 | 0.448 | 0.435 | 0.471 | 0.449 |
| EBC-1 | – | – | – | – | – | – | – | – | – | – | 0.904 | 0.863 | 0.806 | 0.738 | 1.07 | – | – | – | – | – |
| COR-L23 | 0.287 | 0.26 | 0.281 | – | 0.267 | 0.693 | 0.623 | 0.785 | 0.527 | 0.656 | 0.77 | 0.857 | 0.78 | 0.83 | 1.06 | 0.628 | 0.903 | 0.807 | 0.827 | 0.913 |
| NCI-H1793 | 0.278 | 0.3 | 0.319 | 0.348 | 0.206 | 0.382 | 0.374 | 0.469 | 0.408 | 0.447 | 0.667 | 0.701 | 0.722 | 0.73 | 0.676 | 0.211 | 0.179 | 0.169 | – | 0.18 |
| A549 | – | – | – | – | – | – | – | – | – | – | 0.79 | 0.741 | 0.775 | 0.753 | 0.874 | – | – | – | – | – |
| EPLC-272H | – | 0.322 | 0.334 | 0.315 | 0.351 | 0.312 | 0.273 | 0.255 | 0.249 | 0.289 | 1.11 | 0.868 | 0.949 | 0.884 | 0.915 | 0.25 | 0.658 | 0.279 | 0.353 | 0.318 |
| NCI-H2009 | 0.194 | 0.219 | 0.172 | 0.128 | 0.174 | 0.279 | 0.252 | 0.304 | 0.245 | 0.254 | 1.21 | 1.2 | 1.13 | 1.2 | 1.29 | 1.07 | 1.04 | 1.13 | 0.997 | 1.03 |
| ChaGo-K-1 | 0.87 | 0.955 | 0.901 | 0.509 | 0.911 | 0.872 | 0.874 | 0.902 | 0.858 | 0.887 | – | – | – | – | – | 0.573 | 0.542 | 0.701 | 0.843 | 0.587 |
| SW 900 | 0.58 | 0.513 | 0.453 | 0.388 | 0.526 | 0.915 | – | 0.926 | 0.687 | 0.943 | – | – | – | – | – | 0.169 | 0.203 | 0.174 | 0.156 | 0.17 |
| NCI-H2342 | 0.516 | 0.494 | 0.493 | 0.53 | 0.501 | 0.789 | 0.751 | 0.703 | 0.881 | 0.794 | – | – | – | – | – | 0.689 | 0.762 | 0.679 | 0.83 | 0.794 |
